According to article PMC9097457 (The Journal of Biological Chemistry, 2022):
Where a name gives a salt, the structure may show the parent alone.

Legend:
heart mitochondria = test: Conversion of [3H]-dGMP to [3H]-dGTP in isolated heart mitochondria; format: biochemical, rat
Experimental: (§1) Thus, we were interested in determining if the dGTP and dATP phosphorylation pathway in isolated mitochondria functioned similarly.
(§2) [^3H]-dGMP (1 μM) or [^3H]-dAMP (1 μM) was incubated in heart mitochondria as described for Figure 1 for the times shown, and their conversion to [^3H]-dGTP and [^3H]-dATP, respectively, determined in the presence and absence of Ap5A ([…]), a competitive inhibitor of adenylate kinase. Data are shown as a box plot of two independent experiments. The thickness of the lines indicates the spread of the duplicates. Ap5A, P1,P5-di(adenosine-5) pentaphosphate pentasodium salt.
(§3) To measure and compare phosphorylation and kinetics, a stable substrate concentration was necessary and EHNA (5 μM) ([50]) and I-H (2.0 μM) ([49]) were added to all mitochondrial incubations. […] The mitochondria were incubated in vitro for up to 2 h at 37 °C in a shaker bath. At the end of the incubation, reactions were terminated by addition of 10% TCA to an equal volume of incubation mixture (175 μl) and spun in a microcentrifuge to remove precipitates. The supernatant was neutralized with AG 11 A8 resin and filtered through a 0.2-μM nylon syringe filter. The neutralized and filtered supernatants were analyzed by ultra high pressure liquid chromatography (UPLC). Radioactivity was determined from aliquots of each sample and processed through a Beckman Coulter multipurpose liquid scintillation counter (model 6500).

adenylate kinase = test: Conversion of [3H]-dAMP to [3H]-dATP in isolated heart mitochondria; format: biochemical, rat
Experimental: as §1, §2
as §3, with “The supernatant was neutralized with AG 11 A8 resin and filtered through a 0.2-μM nylon syringe filter.” left out

[1] = biological target: T1, deoxyguanosine kinase (dGK) (Rattus norvegicus, UniProt A0A0G2K478); test: Tissue-specific phosphorylation of [3H]-dG, [3H]-dA and [3H]-ETV in isolated mitochondria; format: biochemical; conditions: heart mitochondria
T1 sequence (A0A0G2K478 with tags, fused parts or gaps): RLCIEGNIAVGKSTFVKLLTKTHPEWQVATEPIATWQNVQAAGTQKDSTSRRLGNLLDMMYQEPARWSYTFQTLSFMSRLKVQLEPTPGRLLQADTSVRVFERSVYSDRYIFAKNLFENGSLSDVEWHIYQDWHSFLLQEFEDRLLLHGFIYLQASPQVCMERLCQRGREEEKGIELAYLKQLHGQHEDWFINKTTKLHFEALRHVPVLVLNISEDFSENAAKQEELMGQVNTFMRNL
Experimental: As noted in the Experimental procedures, these were added together to determine total phosphorylation.
as §3
(§4) Extent of phosphorylation was measured and analyzed by UPLC (Agilent 1290) with a reverse-phase C18 column (Zorbax Eclipse Plus C18; 3.0 × 150 mm, 1.8 micron) coupled with an inline diode array to detect UV signal at 254 nm and to an inline liquid scintillation counter (β-Ram) to quantitate radioactivity.
(§5) The radioactivity in each of these peaks was quantitated and totaled to provide the total amount of radioactivity in the phosphorylated products for each labeled precursor. This total was divided by the specific radioactivity of the precursor and expressed as pmol/mg protein/hr. The Kms were calculated from Lineweaver–Burk plots 1/Vo=Km/Vmax[S]+1/Vmax

[2] = biological target: T2, adenosine deaminase (ADA) (Rattus norvegicus, UniProt Q920P6)
T2 sequence (Q920P6 1-352): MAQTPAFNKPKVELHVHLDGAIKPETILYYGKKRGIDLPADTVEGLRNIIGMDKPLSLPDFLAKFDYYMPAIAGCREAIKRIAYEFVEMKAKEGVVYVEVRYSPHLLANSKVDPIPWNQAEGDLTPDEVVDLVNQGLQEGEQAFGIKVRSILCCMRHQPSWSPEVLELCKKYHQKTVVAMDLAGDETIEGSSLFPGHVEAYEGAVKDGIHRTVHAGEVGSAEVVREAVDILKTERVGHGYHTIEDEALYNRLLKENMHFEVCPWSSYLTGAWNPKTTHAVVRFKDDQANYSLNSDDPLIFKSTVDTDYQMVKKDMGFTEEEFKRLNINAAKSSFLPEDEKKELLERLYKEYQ

[3] = biological target: T1, deoxyguanosine kinase (dGK); test: Inhibition of [3H]-dA phosphorylation by competing deoxynucleosides in liver mitochondria; format: biochemical; conditions: IC50 values at 1 μM substrate
Experimental: as §3, §5

isolated rat heart [4] = test: Phosphorylation of [3H]-ETV, [3H]-dG and [3H]-dA in the isolated perfused rat heart (Langendorff)
Experimental: The phosphorylation of [^3H]-dG, [^3H]-dA, and [^3H]-ETV in isolated mitochondria depends on the activity of the mitochondrial dGK. To determine the degree of phosphorylation in a whole tissue, which would include the activity of the cytosolic dCK, we utilized an isolated rat heart Langendorff retrograde perfusion model. The breakdown and phosphorylation of [^3H]-ETV, [^3H]-dG, and [^3H]-dA (0.5 μM each) was measured in the perfusates and in the hearts after 60 min of perfusion (Fig. 9, A and B). […] However, the heart was still able to take up and maintain a small amount of dG to generate 0.18 ± 0.05 pmol/mg wet heart of phosphorylated dG during the 60-min perfusion. […] Despite the loss of [^3H]-dA from the perfusate, the heart took up and maintained enough dA to produce 0.48 ± 0.08 pmol/mg wet heart of phosphorylated [^3H]-dA products at 60 min (Fig. 9B). […] Note that [^3H]-dG and [^3H]-dG catabolites equilibrate rapidly between the perfusion buffer and the heart, while the phosphorylated forms of [^3H]-dG are retained solely in the heart tissue.
Figure 9 [^3H]-ETV and [^3H]-dG phosphorylation in a perfused rat heart. Rat hearts were removed and perfused using the Langendorff method for 1 h as described in Experimental procedures with 0.5 μM [^3H]-ETV, 0.5 μM [^3H]-dG), or 0.5 μM [^3H]-dA. […] A, the amount of exogenous [^3H]-parent compound in the perfusate as a function of time, plotted as a box plot of three independent experiments. See text for details. B, the amount of phosphorylated [^3H]-ETV, [^3H]-dG, or [^3H]-dA in the heart tissue after 60 min of perfusion with additions as noted in (A). See text for details.
Rat hearts were perfused by Langendorff retrograde perfusion apparatus with [^3H]-dG, [^3H]-dA, or [^3H]-ETV for 60 min under the conditions previously described ([25], [26], [51]). Perfused hearts were snap frozen into wafers by clamping the heart in liquid nitrogen, and the frozen tissue wafers were stored in −80 °C until processed as previously described for ([24]) UPLC analysis.

[5] = biological target: T1, deoxyguanosine kinase (dGK); test: Kinetic analysis of [3H]-dG and [3H]-ETV phosphorylation and cross inhibition in heart mitochondria; format: biochemical; conditions: 40 μM ETV, data of Figure 4
Experimental: as §3, §5

[6] = biological target: T3, purine nucleoside phosphorylase (PNP) (Rattus norvegicus, UniProt P85973); conditions: 2.0 μM, kidney mitochondria, 60 min
T3 sequence (P85973 1-289): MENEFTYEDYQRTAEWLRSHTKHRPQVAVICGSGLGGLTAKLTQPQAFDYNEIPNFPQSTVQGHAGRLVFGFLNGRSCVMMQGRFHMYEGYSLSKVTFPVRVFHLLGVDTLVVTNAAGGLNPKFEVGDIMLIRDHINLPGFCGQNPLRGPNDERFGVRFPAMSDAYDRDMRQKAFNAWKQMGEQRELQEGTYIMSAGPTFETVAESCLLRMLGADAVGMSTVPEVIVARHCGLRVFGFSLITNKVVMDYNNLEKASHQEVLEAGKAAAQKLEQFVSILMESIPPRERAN

isolated rat heart [7] = test: Breakdown of the [3H]-parent compound in the perfusate of the isolated perfused rat heart; format: in vitro ADME
Experimental: To determine the degree of phosphorylation in a whole tissue, which would include the activity of the cytosolic dCK, we utilized an isolated rat heart Langendorff retrograde perfusion model.
See text for details. […] See text for details.
Perfused hearts were snap frozen into wafers by clamping the heart in liquid nitrogen, and the frozen tissue wafers were stored in −80 °C until processed as previously described for ([24]) UPLC analysis.

[8] = biological target: T1, deoxyguanosine kinase (dGK); test: Pilot study: effect of 100 μM dG/dA nucleoside analogs on [3H]-dG or [3H]-dA phosphorylation in isolated mitochondria; format: biochemical; conditions: 100 μM analog; [3H]-dG 0.5 μM in liver, kidney, heart, brain mitochondria; [3H]-dA in liver mitochondria; 2 h; + EHNA 5 μM, I-H 2 μM
Experimental: Immucillin-H (I-H) (2 μM) and EHNA (5 μM) were added to the incubation mixture to prevent the breakdown of substrate by purine nucleoside phosphorylase (PNP) and adenosine deaminase (ADA) activity, respectively.
as §3, §4, §5

SMILES: Nc1ncnc2c1ncn2[C@@H]1O[C@H](COP(=O)([O-])OP(=O)([O-])OP(=O)([O-])OP(=O)([O-])OP(=O)([O-])OC[C@H]2O[C@@H](n3cnc4c(N)ncnc43)[C@H](O)[C@@H]2O)[C@@H](O)[C@H]1O.[Na+].[Na+].[Na+].[Na+].[Na+] [Ap5A, P1,P5-di(adenosine-5) pentaphosphate pentasodium salt]
- effect on phosphorylation of dGMP (heart mitochondria; Ap5A 40 μM): not inhibited
- effect on conversion of [3H]-dAMP to [3H]-dATP (adenylate kinase; Ap5A 40 μM): inhibited

SMILES: CCCCCCC(C(C)O)n1cnc2c(N)ncnc21.Cl (stereo not drawn) [EHNA, erythro-9-(2-Hydroxy-3-nonyl)-adenine hydrochloride]
- effect on [3H]-dA or [3H]-dG phosphorylation [1]: no effect
- effect on conversion of [3H]-dA to breakdown products ([2]; EHNA 5 μM, 60 min): completely prevented this conversion

SMILES: C=C1[C@H](CO)[C@@H](O)C[C@@H]1n1cnc2c(=O)[nH]c(N)nc21 [ETV, entecavir]
- inhibition of dA phosphorylation more potent than ETV inhibition of dG phosphorylation [3]: 500 fold
- phosphorylated product in heart (isolated rat heart [4]; 0.5 μM labeled compound alone, 60-min perfusion): 0.25 ± 0.05 pmol/mg wet heart
- inhibition of [3H]-dG phosphorylation (isolated rat heart [4]; 100 μM unlabeled ETV added to [3H]-dG + I-H, 60-min perfusion): 82.0 ± 0.7%
- effect on [3H]-dA phosphorylation (isolated rat heart [4]; ETV 100 μM added to the perfusate): did not appear to inhibit
- effect on conversion of [3H]-dGMP to [3H]-dGTP (heart mitochondria; ETV 40 μM): no effect
- rate of [3H]-dG phosphorylation to [3H]-dGTP in the presence of inhibitor [5]: 12.4 ± 2.0 pmol/mg protein/hr

SMILES: O=c1[nH]cnc2c([C@@H]3N[C@H](CO)[C@@H](O)[C@H]3O)c[nH]c12 [I-H, forodesine hydrochloride]
- effect on conversion of [3H]-dG to breakdown products [6]: completely prevented this conversion
- effect on [3H]-dA or [3H]-dG phosphorylation [1]: no effect
- effect on breakdown of dG in the perfusate (isolated rat heart [7]; I-H 2 μM): prevented most of the breakdown
- effect on [3H]-dA breakdown ([2]; Immucillin-H 2.0 μM, 60 min): no effect

SMILES: CC(C)OC(=O)OCOP(=O)(CO[C@H](C)Cn1cnc2c(N)ncnc21)OCOC(=O)OC(C)C.O=C(O)/C=C/C(=O)O [TDF, tenofovir disproxil fumarate]
- inhibition of the phosphorylation of dA and dG [8]: ETV was shown to be the only dG/dA analog of the eight tested that showed significant inhibition

SMILES: Nc1ncnc2c1ncn2CCOCP(=O)(O)O [adefovir]
- inhibition of the phosphorylation of dA and dG [8]: ETV was shown to be the only dG/dA analog of the eight tested that showed significant inhibition

SMILES: Nc1ncnc2c1ncn2[C@H]1C[C@H](O)[C@@H](CO)O1 [dA, deoxyadenosine]
- phosphorylated [3H]-dA products in heart (isolated rat heart [4]; 0.5 μM [3H]-dA, I-H and EHNA in the perfusate, 60 min): 0.48 ± 0.08 pmol/mg wet heart
- parent compound in the perfusate by 60 min (isolated rat heart [7]; 0.5 μM [3H]-dA, EHNA added): complete loss
- parent compound remaining in the perfusate by 3 min (isolated rat heart [7]; 0.5 μM [3H]-dA, EHNA added): 47.5%
- parent compound in the perfusate by 3 min (isolated rat heart [7]; 0.5 μM [3H]-dA, in the presence of I-H): completely lost
- stability in heart mitochondria ([2]; heart mitochondria, initial studies): stable
- conversion of [3H]-dA to breakdown products ([2]; mitochondria isolated from kidney, 60 min, no inhibitor): 28%

SMILES: Nc1ncnc2c1ncn2[C@H]1C[C@H](O)[C@@H](COP(=O)(O)O)O1 [dAMP]
- time to complete conversion to [3H]-dATP (adenylate kinase; 1 μM): ≤ 10 min

SMILES: Nc1nc2c(ncn2[C@H]2C[C@H](O)[C@@H](COP(=O)(O)O)O2)c(=O)[nH]1 [dGMP]
- plateau, complete conversion of [3H]-dGMP to [3H]-dGTP (heart mitochondria; 1 μM): 123 ± 1 pmol/mg protein
- conversion to [3H]-dGTP at the 30-min time point (heart mitochondria; 1 μM precursor): 106 ± 4 pmol/mg protein
- conversion of dGMP to dGTP faster than conversion of dG to dGTP (heart mitochondria; 30 min): 4.6 times

SMILES: Nc1nc2c(ncn2[C@H]2CC[C@@H](CO)O2)c(=O)[nH]1 [dideoxyguanosine]
- inhibition of the phosphorylation of dA and dG [8]: ETV was shown to be the only dG/dA analog of the eight tested that showed significant inhibition

SMILES: Nc1nc(O)c2ncn(COC(CO)CO)c2n1 [ganciclovir]
- inhibition of the phosphorylation of dA and dG [8]: ETV was shown to be the only dG/dA analog of the eight tested that showed significant inhibition

SMILES: Nc1nc(=O)c2ncn([C@@H]3C[C@H](CO)[C@H]3CO)c2[nH]1 [lobucavir]
- inhibition of the phosphorylation of dA and dG [8]: ETV was shown to be the only dG/dA analog of the eight tested that showed significant inhibition

SMILES: Nc1nc2c(ncn2CCC(CO)CO)c(=O)[nH]1 [penciclovir]
- inhibition of the phosphorylation of dA and dG [8]: ETV was shown to be the only dG/dA analog of the eight tested that showed significant inhibition

SMILES: C[C@H](Cn1cnc2c(N)ncnc21)OCP(=O)(O)O [tenofovir]
- inhibition of the phosphorylation of dA and dG [8]: ETV was shown to be the only dG/dA analog of the eight tested that showed significant inhibition
